Columns and labels:
[1] = tested on: gerbils exposed to 5 min of cerebral ischemia; details: cited from earlier work
mGluR5 = target: T1, mGluR5 (Rattus norvegicus, UniProt P31424); experiment: agonist/antagonist activity in mGluR5a-expressing NIH3T3 cells; assay type: cell-based; details: up to 10 μM
T1 construct: expressed in transfected cells; host or cells: NIH3T3
Experimental: NIH3T3 cells expressed mGluR1 α and mGluR5a individually were cultured in DMEM medium containing 10% dialyzed fetal bovine serum and 100 units/ml, 0.1 mg/ml streptomycin sulfate. CHO cells which expressed mGluR2, R3, R4, R6 and R7 individually were cultured in DMEM medium containing 10% dialyzed fetal bovine serum, 100 units/ml, 0.1 mg/ml streptomycin sulfate and 2 mM glutamine.

mGluR7 = target: T2, mGluR7 (Rattus norvegicus, UniProt P35400); experiment: forskolin-induced cAMP formation in mGluR7-expressing CHO cells; assay type: cell-based; details: up to 100 μM
T2 construct: expressed in transfected cells; host or cells: CHO
Experimental: (§1) NIH3T3 cells expressed mGluR1 α and mGluR5a individually were cultured in DMEM medium containing 10% dialyzed fetal bovine serum and 100 units/ml, 0.1 mg/ml streptomycin sulfate. CHO cells which expressed mGluR2, R3, R4, R6 and R7 individually were cultured in DMEM medium containing 10% dialyzed fetal bovine serum, 100 units/ml, 0.1 mg/ml streptomycin sulfate and 2 mM glutamine. Using the cells expressing mGluR2, R3, R4, R6 and R7 cAMP formation induced by forskolin in the presence of IBMX was measured using a cAMP measuring kit as previously described (Neuron, 8, 169-179, 1992).

mGluR1α = target: T3, mGluR1α (Rattus norvegicus, UniProt P23385); experiment: glutamate-induced phosphatidylinositol (PI) hydrolysis in mGluR1α-expressing cells; assay type: cell-based; details: 100 μM glutamate, read-out: IC50 for inhibition of glutamate-induced PI formation against mGluR1α
T3 construct: expressed in transfected cells; host or cells: NIH3T3
Experimental: NIH3T3 cells expressed mGluR1 α and mGluR5a individually were cultured in DMEM medium containing 10% dialyzed fetal bovine serum and 100 units/ml, 0.1 mg/ml streptomycin sulfate. CHO cells which expressed mGluR2, R3, R4, R6 and R7 individually were cultured in DMEM medium containing 10% dialyzed fetal bovine serum, 100 units/ml, 0.1 mg/ml streptomycin sulfate and 2 mM glutamine. Hydrolysis of phosphatidylinositol was measured as previously described (Nature, 383, 89-92, 1996) using the mGluR1 α-expressing cells incorporated ^3H-inositol.

mGluR2 = target: T4, mGluR2 (Rattus norvegicus, UniProt P31421); experiment: forskolin-induced cAMP formation in mGluR2-expressing CHO cells; assay type: cell-based; details: up to 100 μM
T4 construct: expressed in transfected cells; host or cells: CHO
Experimental: as §1

mGluR3 = target: T5, mGluR3 (Rattus norvegicus, UniProt P31422); experiment: forskolin-induced cAMP formation in mGluR3-expressing CHO cells; assay type: cell-based; details: up to 100 μM
T5 construct: expressed in transfected cells; host or cells: CHO
Experimental: as §1

mGluR4 = target: T6, mGluR4 (Rattus norvegicus, UniProt P31423); experiment: forskolin-induced cAMP formation in mGluR4-expressing CHO cells; assay type: cell-based; details: up to 100 μM
T6 construct: expressed in transfected cells; host or cells: CHO
Experimental: as §1

mGluR6 = target: T7, mGluR6 (Rattus norvegicus, UniProt P35349); experiment: forskolin-induced cAMP formation in mGluR6-expressing CHO cells; assay type: cell-based; details: up to 100 μM
T7 construct: expressed in transfected cells; host or cells: CHO
Experimental: as §1

[2] = tested on: Fischer-344 rat, permanent left MCA occlusion; experiment: permanent MCA occlusion model, cerebral infarct volume (TTC staining); assay type: in vivo; details: 6 mg/kg/h i.v. continuously for 24 hours from 5 minutes after occlusion
Experimental: Compound A was dissolved in physiological saline and adjusted to 6 mg/3 ml. In accordance with the known method (J. Pharmacol. Exp. Thr., 276, 84-92, 1996), left MCA of a Fischer-344 rat was subjected to permanent occlusion and, 5 minutes thereafter, the compound A was intravenously administered continuously for 24 hours at a rate of 6 mg/a dose volume of 3 ml/kg/h under no anesthesia and no restriction. After completion of the administration, the animal was decapitated to excise the brain which was subsequently stained with 2,3,5-triphenyltetrazolium hydrochloride (TTC) to measure infarct volume.

T7 sequence (P35349 24-871): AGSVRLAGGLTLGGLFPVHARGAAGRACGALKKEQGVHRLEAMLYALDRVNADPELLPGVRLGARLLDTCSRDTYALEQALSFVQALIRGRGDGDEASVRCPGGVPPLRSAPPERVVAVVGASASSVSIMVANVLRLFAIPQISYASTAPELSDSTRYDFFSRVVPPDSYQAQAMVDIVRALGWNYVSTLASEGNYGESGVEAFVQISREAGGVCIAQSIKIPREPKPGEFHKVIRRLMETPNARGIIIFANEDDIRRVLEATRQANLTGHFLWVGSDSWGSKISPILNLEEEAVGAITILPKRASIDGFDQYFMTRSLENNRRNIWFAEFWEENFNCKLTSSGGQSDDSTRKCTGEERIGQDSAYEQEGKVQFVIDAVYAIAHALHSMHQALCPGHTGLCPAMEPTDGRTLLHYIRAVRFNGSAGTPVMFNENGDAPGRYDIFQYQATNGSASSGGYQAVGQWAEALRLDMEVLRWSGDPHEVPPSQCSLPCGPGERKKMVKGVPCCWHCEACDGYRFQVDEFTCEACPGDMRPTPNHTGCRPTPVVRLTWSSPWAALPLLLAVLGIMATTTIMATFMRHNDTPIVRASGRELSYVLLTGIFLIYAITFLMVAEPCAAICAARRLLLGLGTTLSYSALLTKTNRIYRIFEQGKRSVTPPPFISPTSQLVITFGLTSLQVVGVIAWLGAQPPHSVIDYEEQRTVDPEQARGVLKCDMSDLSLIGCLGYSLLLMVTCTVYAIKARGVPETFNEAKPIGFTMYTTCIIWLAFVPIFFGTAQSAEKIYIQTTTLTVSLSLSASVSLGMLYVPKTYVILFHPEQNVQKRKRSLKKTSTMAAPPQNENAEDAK
T5 sequence (P31422 23-879): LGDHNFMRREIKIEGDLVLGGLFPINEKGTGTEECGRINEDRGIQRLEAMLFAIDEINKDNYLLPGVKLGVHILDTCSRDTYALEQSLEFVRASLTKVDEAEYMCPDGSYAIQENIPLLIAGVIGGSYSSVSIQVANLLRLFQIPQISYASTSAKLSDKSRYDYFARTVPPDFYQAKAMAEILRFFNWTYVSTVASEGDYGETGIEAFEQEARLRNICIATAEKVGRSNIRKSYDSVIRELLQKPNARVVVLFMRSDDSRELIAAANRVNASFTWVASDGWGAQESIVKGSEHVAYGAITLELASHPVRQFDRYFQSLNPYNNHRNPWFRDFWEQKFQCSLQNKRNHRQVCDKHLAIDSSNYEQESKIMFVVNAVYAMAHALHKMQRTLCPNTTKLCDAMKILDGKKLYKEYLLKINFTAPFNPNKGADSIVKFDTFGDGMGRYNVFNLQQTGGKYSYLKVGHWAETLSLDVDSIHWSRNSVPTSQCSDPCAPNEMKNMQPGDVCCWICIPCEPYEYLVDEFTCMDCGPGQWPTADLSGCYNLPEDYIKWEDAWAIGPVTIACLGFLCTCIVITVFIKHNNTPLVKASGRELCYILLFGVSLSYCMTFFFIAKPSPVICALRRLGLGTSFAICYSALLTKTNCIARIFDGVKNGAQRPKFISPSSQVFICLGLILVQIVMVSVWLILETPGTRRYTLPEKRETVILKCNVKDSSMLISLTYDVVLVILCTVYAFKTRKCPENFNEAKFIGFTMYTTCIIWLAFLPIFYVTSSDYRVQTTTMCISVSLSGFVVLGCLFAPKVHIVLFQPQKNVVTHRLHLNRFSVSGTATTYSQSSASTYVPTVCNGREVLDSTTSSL
T3 sequence (P23385 19-1199): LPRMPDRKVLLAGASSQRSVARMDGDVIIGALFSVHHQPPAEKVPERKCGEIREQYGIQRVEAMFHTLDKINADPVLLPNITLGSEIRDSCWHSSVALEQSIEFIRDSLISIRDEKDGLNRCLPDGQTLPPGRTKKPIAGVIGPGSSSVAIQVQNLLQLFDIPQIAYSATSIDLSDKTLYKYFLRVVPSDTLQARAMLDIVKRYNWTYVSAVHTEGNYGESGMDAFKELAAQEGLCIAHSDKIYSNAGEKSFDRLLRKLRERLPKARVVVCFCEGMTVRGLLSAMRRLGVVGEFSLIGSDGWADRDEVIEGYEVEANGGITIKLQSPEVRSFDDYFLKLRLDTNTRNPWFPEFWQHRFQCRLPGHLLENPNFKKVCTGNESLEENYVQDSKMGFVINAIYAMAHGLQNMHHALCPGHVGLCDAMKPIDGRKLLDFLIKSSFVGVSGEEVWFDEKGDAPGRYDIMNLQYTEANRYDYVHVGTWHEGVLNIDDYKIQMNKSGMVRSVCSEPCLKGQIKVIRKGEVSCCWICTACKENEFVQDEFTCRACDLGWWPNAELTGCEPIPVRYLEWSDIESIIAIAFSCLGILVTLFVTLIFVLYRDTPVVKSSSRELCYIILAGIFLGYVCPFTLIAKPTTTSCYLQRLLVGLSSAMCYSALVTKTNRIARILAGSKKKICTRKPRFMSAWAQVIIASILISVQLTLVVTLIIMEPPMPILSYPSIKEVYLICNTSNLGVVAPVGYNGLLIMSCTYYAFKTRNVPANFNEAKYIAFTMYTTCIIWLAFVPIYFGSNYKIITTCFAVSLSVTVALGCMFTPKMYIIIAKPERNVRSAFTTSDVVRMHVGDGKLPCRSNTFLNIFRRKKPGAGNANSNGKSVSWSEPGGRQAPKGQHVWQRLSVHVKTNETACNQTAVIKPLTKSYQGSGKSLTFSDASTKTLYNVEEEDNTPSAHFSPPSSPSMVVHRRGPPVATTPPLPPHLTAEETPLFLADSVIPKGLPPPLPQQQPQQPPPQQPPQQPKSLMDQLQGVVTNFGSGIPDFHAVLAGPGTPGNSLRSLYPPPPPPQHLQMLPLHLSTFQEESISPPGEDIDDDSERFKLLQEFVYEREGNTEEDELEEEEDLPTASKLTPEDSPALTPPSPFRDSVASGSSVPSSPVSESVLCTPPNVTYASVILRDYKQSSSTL
T6 sequence (P31423 33-912): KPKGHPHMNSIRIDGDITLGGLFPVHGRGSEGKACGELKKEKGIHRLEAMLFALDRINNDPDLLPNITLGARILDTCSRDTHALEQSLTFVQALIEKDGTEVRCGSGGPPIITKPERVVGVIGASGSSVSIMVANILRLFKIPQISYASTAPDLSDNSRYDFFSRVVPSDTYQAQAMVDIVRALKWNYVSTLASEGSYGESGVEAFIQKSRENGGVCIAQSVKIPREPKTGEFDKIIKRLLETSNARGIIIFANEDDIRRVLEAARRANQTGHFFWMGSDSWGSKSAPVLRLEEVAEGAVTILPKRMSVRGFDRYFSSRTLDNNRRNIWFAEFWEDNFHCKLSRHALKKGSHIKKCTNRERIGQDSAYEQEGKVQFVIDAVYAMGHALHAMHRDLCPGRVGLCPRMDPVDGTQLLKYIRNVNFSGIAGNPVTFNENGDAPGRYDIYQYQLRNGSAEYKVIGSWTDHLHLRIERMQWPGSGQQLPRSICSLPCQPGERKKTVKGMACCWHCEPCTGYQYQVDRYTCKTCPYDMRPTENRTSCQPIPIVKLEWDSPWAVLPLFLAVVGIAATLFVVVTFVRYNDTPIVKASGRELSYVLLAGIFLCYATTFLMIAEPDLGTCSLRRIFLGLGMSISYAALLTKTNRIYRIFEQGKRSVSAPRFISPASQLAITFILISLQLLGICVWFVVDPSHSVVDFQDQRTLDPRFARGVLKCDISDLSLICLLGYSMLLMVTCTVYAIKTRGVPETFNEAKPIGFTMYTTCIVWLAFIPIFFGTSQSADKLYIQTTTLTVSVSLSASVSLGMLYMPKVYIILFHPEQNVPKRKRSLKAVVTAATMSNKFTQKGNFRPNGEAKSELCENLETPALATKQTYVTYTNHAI
T1 sequence (P31424 21-1171 isoform P31424-2 limits assumed): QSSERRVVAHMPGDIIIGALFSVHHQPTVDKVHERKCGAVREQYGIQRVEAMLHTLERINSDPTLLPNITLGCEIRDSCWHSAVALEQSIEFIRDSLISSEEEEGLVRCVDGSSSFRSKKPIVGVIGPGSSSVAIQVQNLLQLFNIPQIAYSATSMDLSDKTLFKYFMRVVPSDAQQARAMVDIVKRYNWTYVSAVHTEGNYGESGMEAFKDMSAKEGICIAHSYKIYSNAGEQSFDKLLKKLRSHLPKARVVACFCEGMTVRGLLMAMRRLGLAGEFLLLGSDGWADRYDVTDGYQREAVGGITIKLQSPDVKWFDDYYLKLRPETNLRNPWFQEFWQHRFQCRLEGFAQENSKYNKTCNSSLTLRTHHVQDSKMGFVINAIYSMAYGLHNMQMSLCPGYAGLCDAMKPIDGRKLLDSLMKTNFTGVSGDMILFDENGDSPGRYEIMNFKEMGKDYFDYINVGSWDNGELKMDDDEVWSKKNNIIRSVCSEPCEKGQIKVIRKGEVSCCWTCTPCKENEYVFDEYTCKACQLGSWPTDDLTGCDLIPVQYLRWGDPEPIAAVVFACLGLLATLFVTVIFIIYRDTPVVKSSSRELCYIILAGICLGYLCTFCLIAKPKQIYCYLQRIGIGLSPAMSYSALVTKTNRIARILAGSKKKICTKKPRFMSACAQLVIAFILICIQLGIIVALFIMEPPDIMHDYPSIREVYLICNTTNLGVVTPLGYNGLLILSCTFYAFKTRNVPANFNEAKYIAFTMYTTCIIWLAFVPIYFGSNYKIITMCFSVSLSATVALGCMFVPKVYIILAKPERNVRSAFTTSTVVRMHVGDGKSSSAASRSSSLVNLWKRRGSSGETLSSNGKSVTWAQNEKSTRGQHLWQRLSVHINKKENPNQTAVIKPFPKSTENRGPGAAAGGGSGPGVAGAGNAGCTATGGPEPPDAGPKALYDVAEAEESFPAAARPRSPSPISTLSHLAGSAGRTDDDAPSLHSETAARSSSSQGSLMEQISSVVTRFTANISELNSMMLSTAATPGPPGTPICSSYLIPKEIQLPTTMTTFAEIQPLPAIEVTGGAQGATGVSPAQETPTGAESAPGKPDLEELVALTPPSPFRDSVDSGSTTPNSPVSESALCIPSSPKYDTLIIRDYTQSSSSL

N[C@H](C(=O)O)c1ccc(C(=O)O)c(O)c1 [4 C3 HPG, (S)-4-carboxy-3 hydroxyphenylglycine]
neuroprotective effectiveness in the same gerbil model [1]: is effective

N[C@H](C(=O)O)c1ccc(C(=O)O)cc1 [4 CPG, (S)-4-carboxyphenylglycine]
neuroprotective effectiveness in the same gerbil model [1]: is not effective

NC1(C(=O)O)CCc2cc(C(=O)O)ccc21 (stereo not shown) [AIDA]
loss of neuronal cells in CA1 area ([1]; intraventricular administration): reduced the loss of the neuronal cells

Cc1c(C(=O)N(C)C2CCCCC2)sc2nc3ccc(N)cc3n12.Cl.Cl [compound A, 6-amino-N-cyclohexyl-N,3-dimethylthiazolo[3,2-a]benzoimidazole-2-carboxamide dihydrochloride]
agonist and antagonist activities against mGluR5 (mGluR5): no agonist and antagonist activities
agonist and antagonist activities against mGluR7 (mGluR7): no agonist and antagonist activities
IC50 (mGluR1α): 24 nM
agonist and antagonist activities against mGluR2 (mGluR2): no agonist and antagonist activities
agonist and antagonist activities against mGluR3 (mGluR3): no agonist and antagonist activities
agonist and antagonist activities against mGluR4 (mGluR4): no agonist and antagonist activities
agonist and antagonist activities against mGluR6 (mGluR6): no agonist and antagonist activities
cerebral infarct volume suppression ratio in cerebral cortex [2]: 36%
cerebral infarct volume suppression ratio in cerebral hemisphere [2]: 29%
effect on cerebral infarct volume versus controls [2]: reduced the cerebral infarct volume significantly
